± gives the uncertainty stated by the source.
Experiment: xn = mol fraction of the nth substance listed

O=CN1CCOCC1 + CCc1ccccc1
298.15 K, 101.3 kPa
Settings	viscosity [mPa·s]
x2 = 0.03224	6.848 ± 0.048
x2 = 0.06252	6.122 ± 0.043
x2 = 0.08602	5.678 ± 0.041
x2 = 0.1584	4.43 ± 0.033
x2 = 0.2704	3.151 ± 0.024
x2 = 0.3512	2.527 ± 0.02
x2 = 0.4701	1.841 ± 0.015
x2 = 0.5569	1.511 ± 0.012
x2 = 0.6373	1.261 ± 0.01
x2 = 0.6888	1.137 ± 0.009
x2 = 0.7771	0.986 ± 0.008
x2 = 0.8636	0.829 ± 0.007
x2 = 0.9317	0.713 ± 0.006

CCCCCCCCCCCCCCCCCCCc1ccccc1 + CCCCCCCCCCCCCCCCCCC
313.15 K, 101 kPa
Settings	viscosity [mPa·s]
x2 = 0.1066	7.51 ± 0.06
x2 = 0.1924	7.01 ± 0.06
x2 = 0.433	5.74 ± 0.05
x2 = 0.4887	5.47 ± 0.05
x2 = 0.6377	4.83 ± 0.04
x2 = 0.7465	4.38 ± 0.04
x2 = 0.8251	4.09 ± 0.04

CN1CCNCC1 + O
Settings	viscosity [mPa·s]
298.15 K, 101 kPa, x1 = 0.1039	10.75 ± 0.24

NCc1ccccc1 + C1CCOC1
303.15 K, 101 kPa
Settings	viscosity [mPa·s]
x1 = 0.0768	0.522 ± 0.011
x1 = 0.1577	0.576 ± 0.012
x1 = 0.2429	0.636 ± 0.014
x1 = 0.333	0.705 ± 0.015
x1 = 0.4282	0.785 ± 0.017
x1 = 0.529	0.876 ± 0.019
x1 = 0.636	0.981 ± 0.021
x1 = 0.7497	1.104 ± 0.024
x1 = 0.8708	1.247 ± 0.027

CCCCCCCCCc1ccccc1 + CCCCCCCCCCCCCCCC
viscosity [mPa·s], 102 kPa
Settings	x1 = 0.1006	x1 = 0.2005	x1 = 0.3005	x1 = 0.4001	x1 = 0.5008	x1 = 0.6006	x1 = 0.6997	x1 = 0.7978	x1 = 0.9003
293.15 K	3.4 ± 0.03	3.32 ± 0.03	3.28 ± 0.03	3.22 ± 0.03	3.18 ± 0.03	3.15 ± 0.03	3.13 ± 0.03	3.12 ± 0.03	3.12 ± 0.03
303.15 K	2.71 ± 0.03	2.65 ± 0.03	2.62 ± 0.03	2.58 ± 0.03	2.54 ± 0.03	2.52 ± 0.03	2.51 ± 0.03	2.5 ± 0.03	–
313.15 K	2.2 ± 0.02	2.16 ± 0.03	2.13 ± 0.03	2.11 ± 0.03	2.09 ± 0.03	2.06 ± 0.03	2.05 ± 0.03	2.05 ± 0.03	2.05 ± 0.03
323.15 K	1.83 ± 0.02	1.8 ± 0.02	1.78 ± 0.02	1.76 ± 0.02	1.74 ± 0.02	1.73 ± 0.02	1.72 ± 0.03	1.71 ± 0.03	1.71 ± 0.03

CCCCCCn1cc[n+](C)c1.[Cl-] + CN1CCCC1=O
100 kPa
Settings	viscosity [mPa·s]
293.15 K, x1 = 0.0917	4.165 ± 0.18
293.15 K, x1 = 0.3673	49.65 ± 2.1
298.15 K, x1 = 0.1861	8.485 ± 0.36
303.15 K, x1 = 0.3673	31.75 ± 1.3
308.15 K, x1 = 0.1861	6.465 ± 0.27

CC(C)(C)C(=O)O + CCCN(CCC)CCC
viscosity [mPa·s], 101 kPa
Settings	293.15 K	298.15 K	303.15 K	308.15 K	313.15 K	318.15 K	323.15 K
x1 = 0.1	1.239 ± 0.013	1.113 ± 0.012	1.09 ± 0.011	1.007 ± 0.01	0.961 ± 0.01	–	–
x1 = 0.2	1.593 ± 0.018	1.416 ± 0.015	1.371 ± 0.014	1.265 ± 0.013	1.163 ± 0.012	1.088 ± 0.011	1.017 ± 0.011
x1 = 0.3	1.998 ± 0.026	1.897 ± 0.02	1.631 ± 0.017	1.619 ± 0.017	1.474 ± 0.016	1.375 ± 0.014	1.285 ± 0.013
x1 = 0.4	3.304 ± 0.047	2.795 ± 0.033	2.479 ± 0.027	2.325 ± 0.025	2.14 ± 0.02	1.94 ± 0.02	1.79 ± 0.02
x1 = 0.5	5.525 ± 0.13	4.857 ± 0.062	3.946 ± 0.05	3.56 ± 0.042	3.069 ± 0.037	2.62 ± 0.03	2.72 ± 0.03
x1 = 0.6	14.34 ± 0.4	11.43 ± 0.16	9.15 ± 0.13	7.47 ± 0.1	6.17 ± 0.08	5 ± 0.07	4.15 ± 0.05
x1 = 0.7	41.75 ± 0.87	29.64 ± 0.5	21.72 ± 0.34	16.62 ± 0.25	12.77 ± 0.18	10.24 ± 0.14	8.33 ± 0.11
x1 = 0.725	62.84 ± 0.86	43.6 ± 0.78	31.12 ± 0.53	22.68 ± 0.36	17.62 ± 0.25	14.04 ± 0.19	11.21 ± 0.15
x1 = 0.75	69.2 ± 0.82	52.11 ± 0.78	39.98 ± 0.62	28.77 ± 0.47	21.17 ± 0.31	17.53 ± 0.24	13.24 ± 0.2
x1 = 0.8	54.33 ± 0.74	40.03 ± 0.66	28.38 ± 0.47	21.17 ± 0.31	16.84 ± 0.23	13.12 ± 0.18	10.81 ± 0.14
x1 = 0.9	15.35 ± 0.21	11.96 ± 0.17	9.46 ± 0.13	7.88 ± 0.1	6.57 ± 0.08	5.51 ± 0.07	4.73 ± 0.06

CCCCCCCCCCCO + CCCCCCCCCCO
Settings	viscosity [mPa·s]
293.15 K, 101.33 kPa, x2 = 0.1426	16.47 ± 0.38
293.15 K, 101.33 kPa, x2 = 0.4429	15.7 ± 0.36
293.15 K, 101.33 kPa, x2 = 0.6078	15.37 ± 0.36
293.15 K, 101.33 kPa, x2 = 0.7475	15.08 ± 0.35
293.15 K, 101.33 kPa, x2 = 0.889	14.71 ± 0.34
298.15 K, 101 kPa, x2 = 0.6999	12.35 ± 0.34
298.15 K, 101.33 kPa, x2 = 0.1426	13.44 ± 0.32
298.15 K, 101.33 kPa, x2 = 0.298	13.14 ± 0.31
298.15 K, 101.33 kPa, x2 = 0.7475	12.33 ± 0.29
298.15 K, 101.8 kPa, x2 = 0.1083	13.95 ± 0.37
298.15 K, 101.8 kPa, x2 = 0.3183	13.43 ± 0.37
298.15 K, 101.8 kPa, x2 = 0.5207	12.98 ± 0.37
298.15 K, 101.8 kPa, x2 = 0.7164	12.54 ± 0.36
308.15 K, 101.8 kPa, x2 = 0.1083	9.593 ± 0.37
308.15 K, 101.8 kPa, x2 = 0.3183	9.242 ± 0.34
308.15 K, 101.8 kPa, x2 = 0.5207	8.963 ± 0.34
308.15 K, 101.8 kPa, x2 = 0.7164	8.674 ± 0.34
308.15 K, 101.8 kPa, x2 = 0.907	8.384 ± 0.34
318.15 K, 101.8 kPa, x2 = 0.1083	6.748 ± 0.34
318.15 K, 101.8 kPa, x2 = 0.3183	6.559 ± 0.33
318.15 K, 101.8 kPa, x2 = 0.5207	6.332 ± 0.33
318.15 K, 101.8 kPa, x2 = 0.7164	6.148 ± 0.33
318.15 K, 101.8 kPa, x2 = 0.907	5.962 ± 0.33

CCC(=O)c1ccccc1 + CC#N
308.15 K, 101 kPa
Settings	viscosity [mPa·s]
x1 = 0.0418	0.3347 ± 0.013
x1 = 0.0922	0.3774 ± 0.015
x1 = 0.1459	0.4272 ± 0.016
x1 = 0.2084	0.4875 ± 0.018
x1 = 0.2804	0.5679 ± 0.02
x1 = 0.3757	0.6605 ± 0.023
x1 = 0.4796	0.7806 ± 0.026
x1 = 0.6093	0.9478 ± 0.031
x1 = 0.7791	1.188 ± 0.038
x1 = 0.9397	1.426 ± 0.044

NCc1ccccc1 + CCC(C)CO
viscosity [mPa·s], 101.33 kPa
Settings	x1 = 0.1	x1 = 0.2	x1 = 0.3001	x1 = 0.3999	x1 = 0.5	x1 = 0.6	x1 = 0.6998	x1 = 0.7989	x1 = 0.8999
298.15 K	4.232 ± 0.059	3.772 ± 0.052	3.382 ± 0.047	3.039 ± 0.041	2.708 ± 0.036	2.435 ± 0.032	2.181 ± 0.028	1.984 ± 0.025	1.796 ± 0.022
303.15 K	3.472 ± 0.052	3.103 ± 0.046	2.773 ± 0.04	2.478 ± 0.036	2.243 ± 0.031	2.048 ± 0.028	1.849 ± 0.025	1.691 ± 0.022	1.572 ± 0.02
308.15 K	2.453 ± 0.043	2.227 ± 0.038	2.02 ± 0.033	1.837 ± 0.029	1.711 ± 0.026	1.595 ± 0.023	1.5 ± 0.021	1.423 ± 0.019	1.377 ± 0.017

S=C=S + Cc1ccccc1
298.15 K, 101 kPa
Settings	viscosity [mPa·s]
x1 = 0.1	0.5295 ± 0.0068
x1 = 0.2	0.5063 ± 0.0065
x1 = 0.3	0.4837 ± 0.0062
x1 = 0.4	0.462 ± 0.006
x1 = 0.5	0.4412 ± 0.0057
x1 = 0.6	0.4217 ± 0.0055
x1 = 0.7	0.4035 ± 0.0053
x1 = 0.8	0.3868 ± 0.0051
x1 = 0.9	0.3718 ± 0.0049
x2 = 0.06082	0.37 ± 0.005
x2 = 0.3361	0.417 ± 0.006
x2 = 0.587	0.469 ± 0.006

S=C=S + CO
298.15 K, 101.33 kPa
Settings	viscosity [mPa·s]
x1 = 0.0437	0.5883 ± 0.022
x1 = 0.0987	0.5838 ± 0.022
x1 = 0.1521	0.5538 ± 0.021
x1 = 0.2248	0.5669 ± 0.021
x1 = 0.2969	0.57 ± 0.021
x1 = 0.9488	0.4088 ± 0.017
